# Species: Rattus norvegicus
# Test: DrugMatrix - Regimen: Daily Repeat
# Format: toxicity, organism-based, Sprague-Dawley
# Set-up: regimen Daily Repeat, gender Male, age 6-8 weeks
# Conditions: in vivo, sc, route subcutaneous, […]; for ABSOLUTE BASOPHIL / ABSOLUTE EOSINOPHIL / ABSOLUTE LYMPHOCYTE / ABSOLUTE MONOCYTE / ABSOLUTE SEGMENTED NEUTROPHIL / BASOPHIL / EOSINOPHIL / ERYTHROCYTE COUNT / HEMATOCRIT / HEMOGLOBIN / LEUKOCYTE COUNT / LYMPHOCYTE / MEAN CORPUSCULAR HEMOGLOBIN / MEAN CORPUSCULAR HEMOGLOBIN CONCENTRATION / MEAN CORPUSCULAR VOLUME / MONOCYTE / NEUTROPHIL / NUCLEATED RED BLOOD CELLS / PLATELET COUNT: tissue Blood; for ALANINE AMINOTRANSFERASE / ALBUMIN / ALKALINE PHOSPHATASE / ASPARTATE AMINOTRANSFERASE / BLOOD UREA NITROGEN / CARBON DIOXIDE / CHLORIDE / CHOLESTEROL / CREATINE PHOSPHOKINASE / CREATININE / GLUCOSE / LACTATE DEHYDROGENASE / LIPASE / PHOSPHORUS / POTASSIUM / SODIUM / TOTAL BILIRUBIN / TOTAL PROTEIN / URIC ACID: tissue Plasma
# [1] = 0 mg/kg, 72 h, dose level Control, time 3 day
# [2] = 0 mg/kg, 120 h, dose level Control, time 5 day
# [3] = 50 mg/kg, 72 h, dose level Low, time 3 day
smiles,measurement,setting,value
CC(C)(c1ccc(O)cc1)c1ccc(O)cc1 [BISPHENOL A],ABSOLUTE BASOPHIL,[1],0 CELLS/uL
same,ABSOLUTE EOSINOPHIL,[1],0 CELLS/uL
same,ABSOLUTE LYMPHOCYTE,[1],9782.33 CELLS/uL
same,ABSOLUTE MONOCYTE,[1],114.67 CELLS/uL
same,ABSOLUTE SEGMENTED NEUTROPHIL,[1],753 CELLS/uL
same,BASOPHIL,[1],0%
same,EOSINOPHIL,[1],0%
same,ERYTHROCYTE COUNT,[1],5.14 x10E6/uL
same,HEMATOCRIT,[1],32.12%
same,HEMOGLOBIN,[1],13.13 G/DL
same,LEUKOCYTE COUNT,[1],10.65 x10E3/uL
same,LYMPHOCYTE,[1],91.83%
same,MEAN CORPUSCULAR HEMOGLOBIN,[1],25.83 pg
same,MEAN CORPUSCULAR HEMOGLOBIN CONCENTRATION,[1],41.28 G/DL
same,MEAN CORPUSCULAR VOLUME,[1],62.43 fL
same,MONOCYTE,[1],1%
same,NEUTROPHIL,[1],7.17%
same,NUCLEATED RED BLOOD CELLS,[1],0.17 /100WBC
same,PLATELET COUNT,[1],657.83 x10E3/uL
same,ALANINE AMINOTRANSFERASE,[1],60.33 u/L
same,ALBUMIN,[1],3.83 G/DL
same,ALKALINE PHOSPHATASE,[1],366.33 u/L
same,ASPARTATE AMINOTRANSFERASE,[1],104.5 u/L
same,BLOOD UREA NITROGEN,[1],12.33 mg/dL
same,CARBON DIOXIDE,[1],23.17 mmol/L
same,CHLORIDE,[1],96.67 MEQ/L
same,CHOLESTEROL,[1],73.17 mg/dL
same,CREATINE PHOSPHOKINASE,[1],545.83 u/L
same,CREATININE,[1],0.26 mg/dL
same,GLUCOSE,[1],144.33 mg/dL
same,LACTATE DEHYDROGENASE,[1],147.5 u/L
same,LIPASE,[1],9.33 u/L
same,PHOSPHORUS,[1],10.83 mg/dL
same,POTASSIUM,[1],5.68 MEQ/L
same,SODIUM,[1],138.83 MEQ/L
same,TOTAL BILIRUBIN,[1],0.17 mg/dL
same,TOTAL PROTEIN,[1],5.42 G/DL
same,URIC ACID,[1],0.65 mg/dL
same,ABSOLUTE BASOPHIL,[2],0 CELLS/uL
same,ABSOLUTE EOSINOPHIL,[2],43.33 CELLS/uL
same,ABSOLUTE LYMPHOCYTE,[2],12883 CELLS/uL
same,ABSOLUTE MONOCYTE,[2],166.83 CELLS/uL
same,ABSOLUTE SEGMENTED NEUTROPHIL,[2],1290.17 CELLS/uL
same,BASOPHIL,[2],0%
same,EOSINOPHIL,[2],0.33%
same,ERYTHROCYTE COUNT,[2],5.79 x10E6/uL
same,HEMATOCRIT,[2],36.37%
same,HEMOGLOBIN,[2],14.17 G/DL
same,LEUKOCYTE COUNT,[2],14.38 x10E3/uL
same,LYMPHOCYTE,[2],89.17%
same,MEAN CORPUSCULAR HEMOGLOBIN,[2],24.48 pg
same,MEAN CORPUSCULAR HEMOGLOBIN CONCENTRATION,[2],38.98 G/DL
same,MEAN CORPUSCULAR VOLUME,[2],62.83 fL
same,MONOCYTE,[2],1.17%
same,NEUTROPHIL,[2],9.33%
same,NUCLEATED RED BLOOD CELLS,[2],0.5 /100WBC
same,PLATELET COUNT,[2],1267.33 x10E3/uL
same,ALANINE AMINOTRANSFERASE,[2],53.5 u/L
same,ALBUMIN,[2],3.82 G/DL
same,ALKALINE PHOSPHATASE,[2],342.33 u/L
same,ASPARTATE AMINOTRANSFERASE,[2],83.67 u/L
same,BLOOD UREA NITROGEN,[2],13.17 mg/dL
same,CARBON DIOXIDE,[2],28.17 mmol/L
same,CHLORIDE,[2],101.5 MEQ/L
same,CHOLESTEROL,[2],70.83 mg/dL
same,CREATINE PHOSPHOKINASE,[2],656.67 u/L
same,CREATININE,[2],0.17 mg/dL
same,GLUCOSE,[2],171.33 mg/dL
same,LACTATE DEHYDROGENASE,[2],169 u/L
same,LIPASE,[2],9.17 u/L
same,PHOSPHORUS,[2],12.88 mg/dL
same,POTASSIUM,[2],6.54 MEQ/L
same,SODIUM,[2],141.2 MEQ/L
same,TOTAL BILIRUBIN,[2],0.18 mg/dL
same,TOTAL PROTEIN,[2],5.68 G/DL
same,URIC ACID,[2],2.02 mg/dL
same,ABSOLUTE BASOPHIL,[3],0 CELLS/uL
same,ABSOLUTE EOSINOPHIL,[3],47.33 CELLS/uL
same,ABSOLUTE LYMPHOCYTE,[3],13197 CELLS/uL
same,ABSOLUTE MONOCYTE,[3],0 CELLS/uL
same,ABSOLUTE SEGMENTED NEUTROPHIL,[3],655.67 CELLS/uL
same,BASOPHIL,[3],0%
same,EOSINOPHIL,[3],0.33%
same,ERYTHROCYTE COUNT,[3],5.26 x10E6/uL
same,HEMATOCRIT,[3],33.73%
same,HEMOGLOBIN,[3],13.37 G/DL
same,LEUKOCYTE COUNT,[3],13.9 x10E3/uL
same,LYMPHOCYTE,[3],94.67%
same,MEAN CORPUSCULAR HEMOGLOBIN,[3],25.43 pg
same,MEAN CORPUSCULAR HEMOGLOBIN CONCENTRATION,[3],39.67 G/DL
same,MEAN CORPUSCULAR VOLUME,[3],64.23 fL
same,MONOCYTE,[3],0%
same,NEUTROPHIL,[3],5%
same,NUCLEATED RED BLOOD CELLS,[3],0 /100WBC
same,PLATELET COUNT,[3],1085.33 x10E3/uL
same,ALANINE AMINOTRANSFERASE,[3],58.33 u/L
same,ALBUMIN,[3],4.1 G/DL
same,ALKALINE PHOSPHATASE,[3],341 u/L
same,ASPARTATE AMINOTRANSFERASE,[3],86.67 u/L
same,BLOOD UREA NITROGEN,[3],11.33 mg/dL
same,CARBON DIOXIDE,[3],27.67 mmol/L
same,CHLORIDE,[3],96.5 MEQ/L
same,CHOLESTEROL,[3],65.67 mg/dL
same,CREATINE PHOSPHOKINASE,[3],317.33 u/L
same,CREATININE,[3],0.21 mg/dL
same,GLUCOSE,[3],134 mg/dL
same,LACTATE DEHYDROGENASE,[3],126.67 u/L
same,LIPASE,[3],12.33 u/L
same,PHOSPHORUS,[3],10.53 mg/dL
same,POTASSIUM,[3],5.77 MEQ/L
same,SODIUM,[3],139.05 MEQ/L
same,TOTAL BILIRUBIN,[3],0.17 mg/dL
same,TOTAL PROTEIN,[3],5.33 G/DL
same,URIC ACID,[3],0.37 mg/dL

# — ChEMBL document CHEMBL3885881, “DrugMatrix”
